Here are results for four compounds from paper PMC7767053, “Functional Analysis of Odorant-Binding Proteins 12 and 17 from Wheat Blossom Midge Sitodiplosis mosellana Géhin (Diptera: Cecidomyiidae)” (Insects, 2020).

Entries after “also recorded” stand apart in the source; their conditions may differ. Where two headings read alike, the source gives them in different places.

For experiment [1], the target named is SmosOBP17 (Sitodiplosis mosellana, UniProt A0A346RTY9). In words: Fluorescence competitive binding assay with 1-NPN probe, recombinant SmosOBP17. The note with it: for Ki: calculated from IC50, Ki = [IC50]/(1 + [1-NPN]/K1-NPN); for binding to SmosOBP17 (in words): fluorescence competitive binding. Here is the method:
(§1) To determine binding affinities of SmosOBP12 and SmosOBP17 to host plant volatile compounds, fluorescence competitive binding assays were conducted using 1-N-phenyl-naphthylamine (1-NPN) as the fluorescent probe. Twenty-eight volatile compounds from winter wheat (Table 2) were selected based on our previous research. Both the probe and candidate ligands were dissolved in chromatographic-grade methanol to obtain 1 mM stock solutions, whereas recombinant SmosOBPs were diluted in 20 mM Tris-HCl (pH 7.4) to 2 μM. Fluorescence intensity was detected on an F-4600 fluorescence spectrophotometer (Hitachi, Tokyo, Japan) with a 1 cm light path quartz cuvette. Slits of both excitation and emissions were 10 nm in width. The probe was excited at 337 nm, and emission spectra were recorded between 370 and 550 nm.
(§2) Affinities of SmosOBPs to tested volatile ligands were measured by competition assays: to the 1 mL solution containing 2 μM recombinant protein and 2 μM 1-NPN, 1 mM solution of each putative volatile ligand (in a 2 µL aliquot) was added to final concentrations of 2–14 μM for SmosOBP12 and 2–40 μM for SmosOBP17, respectively. Maximal fluorescence intensities were plotted against ligand concentrations. Data were obtained from three independent measurements.
(§3) The Kd value was calculated using GraphPad Prism 5 (GraphPad Software Inc., La Jolla, CA, USA) via nonlinear regression for a unique site of binding. The inhibition constant (Ki) of each ligand competitor was calculated from the corresponding IC50 value (the concentration of competitor displacing 50% of initial fluorescence intensity) according to the equation: Ki = [IC50]/(1 + [1-NPN]/K1-NPN), where [1-NPN] is the free concentration of 1-NPN, and K1-NPN is the dissociation constant of the SmosOBPs/1-NPN complex.

Experiment [2] has as its target SmosOBP12 (Sitodiplosis mosellana, UniProt A0A346RTY7). In words: Fluorescence competitive binding assay with 1-NPN probe, recombinant SmosOBP12. The note with it: for Ki: calculated from IC50, Ki = [IC50]/(1 + [1-NPN]/K1-NPN). Here is the method: as §1, §2, §3
In experiment [3] the test system is S. mosellana females. In words: Y-tube olfactometer bioassay. The class given is in vivo, Sitodiplosis mosellana. The conditions noted are these: 10 μL of 20 μg/μL in paraffin oil vs paraffin oil control; 60 females. Here is the method: Behavioral responses of S. mosellana females to the 28 volatile ligands were measured in a glass Y-tube olfactometer. The base and two arms of the Y-tube are 15 cm in length and 25 mm in internal diameter. The angle between arms is 60°. A 10 μL aliquot of the test chemical in paraffin oil at a concentration of 20 μg/μL [45] was applied to a filter paper strip (20 × 20 mm), which was allowed to evaporate for 20 s and then placed into one of the two odor bottles. The other odor bottle contained a filter paper strip treated with 10 μL of paraffin oil as the control. Moist, activated-charcoal filtered air entered both odor bottles connected by Teflon tubing to their respective arms of the Y-tube. The airflow rate through the olfactometer was 100 mL/min, which was measured by a float rotor meter. A newly emerged female S. mosellana adult was introduced into the end of the base of the Y-tube, which was then immediately covered with a dark paper box. An office lamp (20 W) illuminated the joint of two arms to facilitate observation. The choice was made if the S. mosellana female walked or flew 5 cm past the Y junction within 5 min and remained there for at least 15 s. Otherwise, it would be recorded as no-choice. Odor source was renewed for every five individuals. After testing for 10 individuals, the Y-tube was thoroughly cleaned with 95% ethanol and dried, and the treatment and control arms were switched to avoid the directional bias. After one odor source was tested, the Y-tube, odor bottles, and Teflon tubing were cleaned and dried before reuse. All experiments were conducted in a laboratory with a temperature of 25 ± 1 °C from 5:00 to 9:00 p.m. Sixty female adults were tested in each treatment group, and each individual was used only once. The choice response of insects in each treatment group was analyzed by the chi-square test using SPSS 20.0 software (Chicago, IL, USA). Non-selecting insects were recorded but not included in the statistical analysis.

In experiment [4] the test system is female antennae of S. mosellana. More on the design: method as in Cheng et al., 2020. The note with it: ref Cheng et al., 2020; cited from earlier work.
Experiment [5] deals with SmosOBP11. More on the design: method as in PMID 31017726. The conditions noted are these: cited from earlier work.
The subject of experiment [6] is SmosOBP21. The arrangement: method as in PMID 31017726. The conditions noted are these: cited from earlier work.
Experiment [7] relates to SmosOBP16. The arrangement: method as in PMID 31017726. The note with it: cited from earlier work.
The mark [8] stands for this setting: displacement of 1-NPN, 2 μM protein, 2 μM 1-NPN, ligand 2–40 μM, three independent measurements, read-out: SmosOBP17 IC50.
[9] abbreviates: displacement of 1-NPN, 2 μM protein, 2 μM 1-NPN, ligand 2–14 μM, three independent measurements, read-out: SmosOBP12 IC50.

Chain of SmosOBP12 (A0A346RTY7 entry or part of it): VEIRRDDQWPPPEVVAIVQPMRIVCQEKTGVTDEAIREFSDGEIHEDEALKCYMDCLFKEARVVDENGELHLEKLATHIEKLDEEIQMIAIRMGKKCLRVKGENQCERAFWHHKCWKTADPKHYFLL
Chain of SmosOBP17 (A0A346RTY9 entry or part of it): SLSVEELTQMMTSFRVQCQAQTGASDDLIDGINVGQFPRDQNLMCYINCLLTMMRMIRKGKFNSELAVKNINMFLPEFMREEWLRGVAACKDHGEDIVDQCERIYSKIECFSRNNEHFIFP

Take `CCCCCCOC(C)=O` [Hexyl acetate]: the Ki in experiment [1] is 25.51 ± 0.02 µM; in experiment [2] (read-out: SmosOBP12 Ki) it was 10.42 ± 0.08 µM. Moreover, the IC50 in experiment [1] (setting [8]) amounted to 33.96 ± 0.03 µM; in experiment [2] (setting [9]), 12.88 ± 0.09 µM. Also, the “behavioral response of S. mosellana female adults” value (from here on “behavioral response”) in experiment [3] is listed as “intensive response; also recorded: significant attraction; also recorded: significantly attracted”. Besides, the “electrophysiological response on female antennae” value in experiment [4] is listed as “strong electrophysiological responses”.
For the compound `COC(=O)c1ccccc1O` [Methyl salicylate], the IC50 in experiment [1] turned out to be 26.8 ± 0.27 µM; in experiment [2], 11.9 ± 0.24 µM. Further, the inhibitory constant (Ki) in experiment [2] (SmosOBP12 Ki) was 9.62 ± 0.33 µM. Moreover, in experiment [3], the “behavioral response” value was “intensive response; also recorded: significant attraction; also recorded: significantly attracted”. Besides, the “electrophysiological response on female antennae” value in experiment [4] is on record as “strong electrophysiological responses”.
As for `C=CC(C)=CCC=C(C)C` [Ocimene], the Ki in experiment [1] was more than 30 µM; in experiment [2] (listed as ocimene, read-out: SmosOBP12 Ki) it was 8.2 µM; in experiment [2] (read-out: SmosOBP12 Ki), 8.24 ± 0.03 µM. In addition, the IC50 is more than 40 µM in experiment [1] (setting [8]) and 10.17 ± 0.04 µM in experiment [2] (setting [9]). Further, the “binding to SmosOBP17 (in words)” value in experiment [1] is recorded as “insensitive; also recorded: did not bind”. For the same compound, in experiment [5], the “binding to SmosOBP11 (in words)” value was “did not bind”. Besides, the “binding to SmosOBP21 (in words)” value in experiment [6] was “did not bind”. The “behavioral response” value in experiment [3] was “repelled; also recorded: intensive response; also recorded: significant repulsion; also recorded: strong repelling effect”. The “binding to SmosOBP16 (in words)” value in experiment [7] was “did not bind”.
For the compound `C=C/C(C)=C/C/C=C(\C)CCC=C(C)C` [α-Farnesene], the Ki in experiment [1] is more than 30 µM; in experiment [2] (read-out: SmosOBP12 Ki) it was more than 11.3 µM. In addition, the IC50 in experiment [1] (setting [8]) was more than 40 µM; in experiment [2] (setting [9]) it was more than 14 µM. In addition, the “binding to SmosOBP17 (in words)” value in experiment [1] was “did not show any affinity; also recorded: no affinity”. In addition, the “binding to SmosOBP11 (in words)” value in experiment [5] is “no affinity”. The “binding to SmosOBP21 (in words)” value in experiment [6] is “no affinity”. In addition, the “binding to SmosOBP12 (in words)” value in experiment [2] (fluorescence competitive binding) was “did not show any affinity; also recorded: no affinity”. Further, the “behavioral response” value in experiment [3] was “intensive response; also recorded: significant repulsion; also recorded: repelled”. Besides, in experiment [7], the “binding to SmosOBP16 (in words)” value is given as “no affinity”.
